Numbers after ± are expanded uncertainties.
Test: xn = mol fraction of the nth substance listed
Details: 101 kPa, Liquid, Capillary tube (Ostwald / Ubbelohde) method

`CCCCCl` [1-chlorobutane] + CCCCCCC gave a kinematic viscosity (283.15 K, x1 = 0.0508) of 5.595e-07 ± 4.7e-09 m2/s, a kinematic viscosity (283.15 K, x1 = 0.1017) of 5.632e-07 ± 4.7e-09 m2/s and a kinematic viscosity (283.15 K, x1 = 0.1981) of 5.703e-07 ± 4.8e-09 m2/s. The kinematic viscosity (283.15 K, x1 = 0.2989) was 5.788e-07 ± 4.9e-09 m2/s, the kinematic viscosity (283.15 K, x1 = 0.4022) was 5.882e-07 ± 4.9e-09 m2/s and the kinematic viscosity (283.15 K, x1 = 0.4998) was 5.984e-07 ± 5e-09 m2/s. The kinematic viscosity (283.15 K, x1 = 0.6008) was 6.102e-07 ± 5.1e-09 m2/s, the kinematic viscosity (283.15 K, x1 = 0.6989) was 6.229e-07 ± 5.2e-09 m2/s and the kinematic viscosity (283.15 K, x1 = 0.7985) was 6.367e-07 ± 5.3e-09 m2/s. The kinematic viscosity (283.15 K, x1 = 0.898) was 6.52e-07 ± 5.4e-09 m2/s, the kinematic viscosity (283.15 K, x1 = 0.9498) was 6.608e-07 ± 5.5e-09 m2/s and the kinematic viscosity (298.15 K, x1 = 0.0508) was 4.824e-07 ± 4.2e-09 m2/s. It also gave a kinematic viscosity (298.15 K, x1 = 0.1017) of 4.857e-07 ± 4.2e-09 m2/s, a kinematic viscosity (298.15 K, x1 = 0.1981) of 4.927e-07 ± 4.2e-09 m2/s and a kinematic viscosity (298.15 K, x1 = 0.2989) of 5e-07 ± 4.3e-09 m2/s. The kinematic viscosity (298.15 K, x1 = 0.4022) was 5.088e-07 ± 4.3e-09 m2/s, the kinematic viscosity (298.15 K, x1 = 0.4998) was 5.177e-07 ± 4.4e-09 m2/s and the kinematic viscosity (298.15 K, x1 = 0.6008) was 5.278e-07 ± 4.5e-09 m2/s. The kinematic viscosity (298.15 K, x1 = 0.6989) was 5.386e-07 ± 4.6e-09 m2/s, the kinematic viscosity (298.15 K, x1 = 0.7985) was 5.501e-07 ± 4.7e-09 m2/s and the kinematic viscosity (298.15 K, x1 = 0.898) was 5.626e-07 ± 4.7e-09 m2/s. It also gave a kinematic viscosity (298.15 K, x1 = 0.9498) of 5.692e-07 ± 4.8e-09 m2/s, a kinematic viscosity (313.15 K, x1 = 0.0508) of 4.248e-07 ± 3.7e-09 m2/s and a kinematic viscosity (313.15 K, x1 = 0.1017) of 4.278e-07 ± 3.8e-09 m2/s. It also gave a kinematic viscosity (313.15 K, x1 = 0.1981) of 4.335e-07 ± 3.8e-09 m2/s, a kinematic viscosity (313.15 K, x1 = 0.2989) of 4.396e-07 ± 3.8e-09 m2/s and a kinematic viscosity (313.15 K, x1 = 0.4022) of 4.471e-07 ± 3.9e-09 m2/s. The kinematic viscosity (313.15 K, x1 = 0.4998) was 4.545e-07 ± 4e-09 m2/s, the kinematic viscosity (313.15 K, x1 = 0.6008) was 4.624e-07 ± 4e-09 m2/s and the kinematic viscosity (313.15 K, x1 = 0.6989) was 4.705e-07 ± 4.1e-09 m2/s. The kinematic viscosity (313.15 K, x1 = 0.7985) was 4.792e-07 ± 4.1e-09 m2/s, the kinematic viscosity (313.15 K, x1 = 0.898) was 4.882e-07 ± 4.2e-09 m2/s and the kinematic viscosity (313.15 K, x1 = 0.9498) was 4.935e-07 ± 4.2e-09 m2/s.

`CCC(C)(C)C` [2,2-dimethylbutane] + CC(C)CCl gave a kinematic viscosity (283.15 K, x1 = 0.0487) of 5.82e-07 ± 4.9e-09 m2/s, a kinematic viscosity (283.15 K, x1 = 0.0994) of 5.816e-07 ± 4.9e-09 m2/s and a kinematic viscosity (283.15 K, x1 = 0.1995) of 5.814e-07 ± 4.9e-09 m2/s. For the same compound, the kinematic viscosity (283.15 K, x1 = 0.2985) was 5.821e-07 ± 4.9e-09 m2/s, the kinematic viscosity (283.15 K, x1 = 0.3993) was 5.834e-07 ± 4.9e-09 m2/s and the kinematic viscosity (283.15 K, x1 = 0.5018) was 5.866e-07 ± 4.9e-09 m2/s. For the same compound, the kinematic viscosity (283.15 K, x1 = 0.6011) was 5.899e-07 ± 4.9e-09 m2/s, the kinematic viscosity (283.15 K, x1 = 0.6985) was 5.953e-07 ± 5e-09 m2/s and the kinematic viscosity (283.15 K, x1 = 0.7995) was 6.024e-07 ± 5e-09 m2/s. For the same compound, the kinematic viscosity (283.15 K, x1 = 0.8988) was 6.115e-07 ± 5.1e-09 m2/s, the kinematic viscosity (283.15 K, x1 = 0.9479) was 6.158e-07 ± 5.1e-09 m2/s and the kinematic viscosity (298.15 K, x1 = 0.0487) was 4.94e-07 ± 4.2e-09 m2/s. The kinematic viscosity (298.15 K, x1 = 0.0994) was 4.941e-07 ± 4.2e-09 m2/s, the kinematic viscosity (298.15 K, x1 = 0.1995) was 4.939e-07 ± 4.2e-09 m2/s and the kinematic viscosity (298.15 K, x1 = 0.2985) was 4.939e-07 ± 4.2e-09 m2/s. It also gave a kinematic viscosity (298.15 K, x1 = 0.3993) of 4.942e-07 ± 4.2e-09 m2/s, a kinematic viscosity (298.15 K, x1 = 0.5018) of 4.958e-07 ± 4.3e-09 m2/s and a kinematic viscosity (298.15 K, x1 = 0.6011) of 4.986e-07 ± 4.3e-09 m2/s. It also gave a kinematic viscosity (298.15 K, x1 = 0.6985) of 5.025e-07 ± 4.3e-09 m2/s, a kinematic viscosity (298.15 K, x1 = 0.7995) of 5.071e-07 ± 4.3e-09 m2/s and a kinematic viscosity (298.15 K, x1 = 0.8988) of 5.13e-07 ± 4.4e-09 m2/s. The kinematic viscosity (298.15 K, x1 = 0.9479) was 5.163e-07 ± 4.4e-09 m2/s, the kinematic viscosity (313.15 K, x1 = 0.0487) was 4.366e-07 ± 3.8e-09 m2/s and the kinematic viscosity (313.15 K, x1 = 0.0994) was 4.365e-07 ± 3.8e-09 m2/s. It also gave a kinematic viscosity (313.15 K, x1 = 0.1995) of 4.362e-07 ± 3.8e-09 m2/s, a kinematic viscosity (313.15 K, x1 = 0.2985) of 4.363e-07 ± 3.8e-09 m2/s and a kinematic viscosity (313.15 K, x1 = 0.3993) of 4.366e-07 ± 3.8e-09 m2/s. It also gave a kinematic viscosity (313.15 K, x1 = 0.5018) of 4.38e-07 ± 3.8e-09 m2/s, a kinematic viscosity (313.15 K, x1 = 0.6011) of 4.402e-07 ± 3.8e-09 m2/s and a kinematic viscosity (313.15 K, x1 = 0.6985) of 4.439e-07 ± 3.9e-09 m2/s. The kinematic viscosity (313.15 K, x1 = 0.7995) was 4.476e-07 ± 3.9e-09 m2/s, the kinematic viscosity (313.15 K, x1 = 0.8988) was 4.524e-07 ± 3.9e-09 m2/s and the kinematic viscosity (313.15 K, x1 = 0.9479) was 4.542e-07 ± 4e-09 m2/s.

— the NIST ThermoML archive (doi:10.1021/je200213h)
